From patent US20160025704A1, “METHODS FOR IDENTIFYING NEUROPROTECTIVE PKC ACTIVATORS” (priority 2013, published 2016)

Tests used:
[1] = system: ECE; test: ECE activity in SH-SY5Y cells (fluorometric); type: cell-based; conditions: compared to ethanol alone
Description: Aβ can be degraded in vivo by a number of enzymes, including insulin degrading enzyme (insulysin), neprilysin, and ECE (FIG. 12). Because PKC-ε overexpression has been reported to activate ECE (Choi et al., Proc. Natl. Acad. Sci. USA. 2006; 103: 8215-20), the effect of PKC activators on ECE was analyzed. Candidate PKC activators were added to either SH-SY5Y cells (Bryo—0.27 nM, DCP-LA—1 μM, and DHA-CP6 1 μM) or cultured neurons (DHA-CP6—1 μM, EPA-CP5— 1 μM, and AA-CP4— 1 μM), and grown on either 12- or 24-well plates. After various time periods, the cells were collected and ECE activity was measured fluorometrically. Results are shown below in FIG. 13. *, p<0.05; **, p<0.001.
PKCε overexpression has been reported to activate endothelin converting enzyme (ECE). The effect of PKC activators on ECE was measured here with Bryostatin, DCP-LA, and DHA-CP6. […] Protocol: Bryostatin (0.27 nM), DCP-LA (1 μM), DHACP6 (1 μM), EPA-CP5 (1 μM), AA-CP4 (1 μM), or ethanol alone were added to SH-SYSY cells growing on 12- or 24-well plates. After various periods of time, the cells were collected and ECE activity was measured fluorometrically as showing in FIG. 34 below (* p<0.05, ** p<0.001).

[2] = system: BDNF, NGF, NT-3, and GAP-43 mRNA; test: NTF mRNA expression in primary hippocampal neurons treated with Aβ (real time PCR); type: cell-based, rat; conditions: co-treated 24 hours or treated 12 hours after Aβ
Description: Protocol: Primary hippocampal neurons were treated with control buffer (Untreated), Aβ (1 μM, oligomeric form), or 0.5 nM bryostatin for 24 hours. Some cells were co-treated with Aβ plus 0.5 nM bryostatin (Bryo+Aβ) for 24 hours, or pre-treated with Aβ for 12 hours, washed out, and then treated with bryostatin for additional 12 hours (Aβ+Bryo). Cells were then lysed and total RNA was isolated. Relative expression change of BDNF, NGF, NT-3, and GAP-43 mRNA was quantitatively measured from real time PCR using specific primers against rat BDNF, NGF, NT-3, and GAP-43 mRNA (FIG. 14). A representative gel image is also shown below in FIG. 14 (Mean+SEM, *P<0.05, Aβ compared with untreated; #P<0.05, Bryo+Aβ or Aβ+Bryo compared with Aβ only).
Test A—DCPLA (500 nM): Primary hippocampal neurons were treated with control buffer (Untreated), Aβ (1 μM, oligomer), or 500 nM DCPLA for 24 hours. Some cells were pre-treated with Aβ for 12 hr and then treated with 500 nM DCPLA for 12 hours (Aβ+DCP-LA), or co-treated with Aβ plus 500 nM DCP-LA (DCP-LA+Aβ) for 24 hours. Total RNA was isolated and relative expression change of BDNF, NGF, NT-3, and GAP-43 mRNA was quantitatively measured from real time RT-PCR using specific primers against rat BDNF, NGF, NT-3, and GAP-43 mRNA (FIG. 15). A representative gel image is also shown below in FIG. 15 (Mean+SEM of three independent experiments, *P<0.05, Aβ compared with untreated; #P<0.05, Aβ+Bryo or Bryo+Aβ compared with Aβ only).
Test B—DCPLA-methyl ester (100 nM): Primary hippocampal neurons were treated with control buffer (Untreated), 1 μM Aβ, or 100 nM DCP-LA ME (the methyl ester form of DCP-LA) for 24 hours. Some cells were pre-treated with Aβ for 12 hr and then treated with 100 nM DCP-LA ME for 12 hours (Aβ+DCP-LA ME), or co-treated with Aβ plus […] (DCP-LA ME+Aβ) for 24 hours. Total RNA was isolated and relative expression change of BDNF, NGF, NT-3, and GAP-43 mRNA was quantitatively measured from real time RT-PCR using specific primers against rat BDNF, NGF, NT-3, and GAP-43 mRNA (FIG. 16). […]

[3] = molecular target: T1, PKC-ε (Homo sapiens, UniProt Q02156); test: Activation of purified PKC isozymes; type: biochemical
T1 sequence (Q02156 1-737): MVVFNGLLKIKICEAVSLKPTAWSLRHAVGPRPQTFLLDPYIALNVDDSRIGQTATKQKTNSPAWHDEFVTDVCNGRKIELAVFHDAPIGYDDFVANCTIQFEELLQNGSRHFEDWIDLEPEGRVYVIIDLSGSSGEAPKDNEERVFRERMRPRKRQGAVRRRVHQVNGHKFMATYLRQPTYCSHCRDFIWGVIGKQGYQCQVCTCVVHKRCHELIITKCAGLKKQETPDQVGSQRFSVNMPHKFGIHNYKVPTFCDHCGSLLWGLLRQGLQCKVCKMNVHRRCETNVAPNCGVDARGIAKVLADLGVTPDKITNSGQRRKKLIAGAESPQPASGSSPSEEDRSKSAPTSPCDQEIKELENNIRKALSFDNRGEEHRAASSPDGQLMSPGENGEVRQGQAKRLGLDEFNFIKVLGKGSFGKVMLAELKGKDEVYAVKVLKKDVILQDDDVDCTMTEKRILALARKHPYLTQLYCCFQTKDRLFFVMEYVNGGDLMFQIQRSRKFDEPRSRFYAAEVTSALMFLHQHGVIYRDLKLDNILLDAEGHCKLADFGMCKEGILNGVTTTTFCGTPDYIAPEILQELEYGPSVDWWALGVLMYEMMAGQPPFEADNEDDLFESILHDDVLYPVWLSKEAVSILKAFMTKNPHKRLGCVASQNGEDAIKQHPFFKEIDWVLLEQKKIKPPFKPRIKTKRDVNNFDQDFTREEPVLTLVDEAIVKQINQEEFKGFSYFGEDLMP
Description: Protocol: Purified PKC-α, βII, γ, δ, or ε (9 ng) was preincubated for 5 minutes at room temperature with the following PKC activators: (A) DHA-CP6, (B) EPA-CP5, (C) AA-CP4, (D) DCP-LA, (E) “other cyclopropaneated and epoxidized fatty acids, alcohols, and methyl esters.” followed by measurement of PKC activity as described under Experimental Procedures. Results are shown below in FIG. 6.

SMILES	ECE activity ([1]; 1 μM)	NTF mRNA expression decreased by Aβ ([2]; 500 nM, Aβ 1 μM oligomer)	PKC-ε specificity versus PKC-α and PKC-δ ([3]; purified PKC isozymes (9 ng), preincubated 5 minutes at room temperature)	ECE activity ([1]; 0.27 nM)	ECE activity ([1]; 0.27 nM, listed as Bryo)	NTF mRNA expression decreased by Aβ ([2]; 0.5 nM, Aβ 1 μM oligomeric)	activation of α isoform versus ε isoform ([3]; in vitro measurements with purified PKC isozymes)
CCCCCC1CC1CC1CC1CCCCCCCC(=O)O (stereo not shown) [DCPLA, 8-[2-(2-pentylcyclopropyl)methyl]-cyclopropaneoctanoic acid]	sustained increase in ECE activity	recovers NTF mRNA expression decreased by Aβ	PKC-ε specificity ±15% PKC-α and PKC-δ				
CCC/C=C/C=C/C(=O)O[C@H]1/C(=C/C(=O)OC)C[C@H]2C[C@H]([C@@H](C)O)OC(=O)C[C@H](O)C[C@@H]3C[C@H](OC(C)=O)C(C)(C)[C@](O)(C[C@@H]4C/C(=C/C(=O)OC)C[C@H](/C=C/C(C)(C)[C@]1(O)O2)O4)O3 [Bryostatin, bryostatin-1]				sustained increase in ECE activity	increase in ECE activity	recovers NTF mRNA expression decreased by Aβ	activates the α isoform and ε isoform equally
